Experimental data taken from EPA's CvTdb concentration-time database.

What was measured:
Rat [1] = assay: concentration in liver after dosing; conditions: 3 h; dosed: Potassium Perfluorobutane Sulfonate; 20 mg/kg; oral; Female; Harlan Sprague Dawley
Rat [2] = assay: concentration in brain after dosing; conditions: 3 h; dosed: Potassium Perfluorobutane Sulfonate; 20 mg/kg; oral; Male; Harlan Sprague Dawley
Rat [3] = assay: concentration in kidney after dosing; conditions: 12 h; dosed: Potassium Perfluorobutane Sulfonate; 20 mg/kg; oral; Male; Harlan Sprague Dawley
Rat [4] = assay: concentration in kidney after dosing; conditions: 3 h; dosed: Potassium Perfluorobutane Sulfonate; 20 mg/kg; oral; Male; Harlan Sprague Dawley
Rat [5] = assay: concentration in plasma after dosing; conditions: 0.75 h; dosed: Potassium Perfluorobutane Sulfonate; 4 mg/kg; iv; Female; Harlan Sprague-Dawley
Rat [6] = assay: concentration in kidney after dosing; conditions: 6 h; dosed: Potassium Perfluorobutane Sulfonate; 20 mg/kg; oral; Male; Harlan Sprague Dawley
Rat [7] = assay: concentration in plasma after dosing; conditions: dosed: Potassium Perfluorobutane Sulfonate, 4 mg/kg, iv, Male, F344
Rat [8] = assay: concentration in plasma after dosing; conditions: dosed: 2-Hydroxy-4-methoxybenzophenone, 100 mg/kg, oral, Female, F344
Rat [9] = assay: concentration in plasma after dosing; conditions: 0.25 h; dosed: 2-Hydroxy-4-methoxybenzophenone; 500 mg/kg; oral; Male; F344
Mouse [10] = assay: concentration in plasma after dosing; conditions: 0.25 h; dosed: 2-Hydroxy-4-methoxybenzophenone; 500 mg/kg; oral; Female; B6C3F1
Rat [11] = assay: concentration in plasma after dosing; conditions: dosed: 2-Hydroxy-4-methoxybenzophenone, 100 mg/kg, oral, Male, F344
Rat [12] = assay: concentration in plasma after dosing; conditions: dosed: 2-Hydroxy-4-methoxybenzophenone, 8 mg/kg, iv, Male, F344
Rat [13] = assay: concentration in plasma after dosing; conditions: dosed: 2-Hydroxy-4-methoxybenzophenone, 250 mg/kg, oral, Male, F344
Mouse [14] = assay: concentration in plasma after dosing; conditions: 10 min; dosed: 2-Hydroxy-4-methoxybenzophenone; 50 mg/kg; iv; Female; B6C3F1
Mouse [15] = assay: concentration in plasma after dosing; conditions: 10 min; dosed: 2-Hydroxy-4-methoxybenzophenone; 500 mg/kg; oral; Male; B6C3F1
Mouse [16] = assay: concentration in plasma after dosing; conditions: 10 min; dosed: 2-Hydroxy-4-methoxybenzophenone; 50 mg/kg; iv; Male; B6C3F1
Mouse [17] = assay: concentration in plasma after dosing; conditions: 2 h; dosed: 2-Hydroxy-4-methoxybenzophenone; 50 mg/kg; iv; Male; B6C3F1
Rat [18] = assay: concentration in brain after dosing; conditions: 12 h; dosed: Perfluorooctanoic acid; 12 mg/kg; oral; Male; Harlan Sprague Dawley
Rat [19] = assay: concentration in liver after dosing; conditions: 6 h; dosed: Perfluorooctanoic acid; 12 mg/kg; oral; Male; Harlan Sprague Dawley
Rat [20] = assay: concentration in liver after dosing; conditions: 12 h; dosed: Fluorotelomer alcohol 8+2; 24 mg/kg; oral; Male; Harlan Sprague Dawley
Rat [21] = assay: concentration in liver after dosing; conditions: 1200 h; dosed: Perfluorooctanoic acid; 12 mg/kg; oral; Male; Harlan Sprague Dawley
Rat [22] = assay: concentration in kidney after dosing; conditions: 6 h; dosed: Perfluorooctanoic acid; 12 mg/kg; oral; Male; Harlan Sprague Dawley
Rat [23] = assay: concentration in plasma after dosing; conditions: dosed: 678-39-7, 40 mg/kg, iv, Male, F344
Rat [24] = assay: concentration in kidney after dosing; conditions: 0.5 h; dosed: Fluorotelomer alcohol 8+2; 80 mg/kg; oral; Female; Harlan Sprague Dawley
Rat [25] = assay: concentration in plasma after dosing; conditions: dosed: 678-39-7, 40 mg/kg, iv, Male, F344; remark: listed apart in the source
Rat [26] = assay: concentration in plasma after dosing; conditions: 3 h; dosed: 678-39-7; 12 mg/kg; iv; Male; F344
Rat [27] = assay: concentration in plasma after dosing; conditions: 5 min; dosed: Nitrite; 80 mg/kg; oral; Female; F344
Rat [28] = assay: concentration in plasma after dosing; conditions: 0.5 h; dosed: Nitrite; 40 mg/kg; oral; Female; F344
Rat [29] = assay: concentration in plasma after dosing; conditions: 5 min; dosed: Nitrite; 80 mg/kg; oral; Female; F344; remark: listed apart in the source
Rat [30] = assay: concentration in plasma after dosing; conditions: 2 min; dosed: Nitrite; 80 mg/kg; oral; Female; F344

O=S(=O)([O-])C(F)(F)C(F)(F)C(F)(F)C(F)(F)F.[K+] [Potassium Perfluorobutane Sulfonate]
Conditions	concentration in brain [ng/g]	concentration in kidney [ng/g]	concentration in liver [ng/g]	concentration in plasma [ng/mL]
Rat [1]	–	–	8410	–
Rat [2]	754	–	–	–
Rat [3]	–	3610	–	–
Rat [4]	–	27100	–	–
Rat [5]	–	–	–	2530
Rat [6]	–	13100	–	–

Rat [7]
Conditions	concentration in plasma [ng/mL]
3 h	305
5 min	26400

COc1ccc(C(=O)c2ccccc2)c(O)c1 [2-Hydroxy-4-methoxybenzophenone]
concentration in plasma [ng/mL]
Conditions	Rat [8]	Rat [11]	Rat [12]	Rat [13]
0.25 h	–	–	2370	–
2 h	–	–	113	–
3 h	13.6	21.2	–	91.3
10 min	27.8	17.3	–	357

Conditions	concentration in plasma [ng/mL]
Mouse [10]	1230
Mouse [14]	8410
Mouse [15]	93.1
Mouse [16]	14000
Mouse [17]	236
Rat [9]	403

O=C(O)C(F)(F)C(F)(F)C(F)(F)C(F)(F)C(F)(F)C(F)(F)C(F)(F)F [Perfluorooctanoic acid]
Conditions	concentration in brain [ng/g]	concentration in kidney [ng/g]	concentration in liver [ng/g]	concentration in plasma [ng/mL]
Rat [18]	1230	–	–	–
Rat [19]	–	–	63400	–
Rat [20]	–	–	1700	–
Rat [21]	–	–	7530	–
Rat [22]	–	37600	–	–
Rat [24]	–	284	–	–
Rat [26]	–	–	–	497

concentration in plasma [ng/mL]
Conditions	0.25 h	5 min	6 h	24 h
Rat [23]	671	–	1310	819
Rat [25]	–	350000	66100	–

O=N[O-] [Nitrite]
Conditions	concentration in plasma [ng/mL]
Rat [27]	7300
Rat [28]	11600
Rat [29]	18700
Rat [30]	7000
